# Test results from ChEMBL document CHEMBL1151052, “Semi-synthetic qualestatins: Squalene synthase inhibition and antifungal activity. The SAR of C6 and C7 modifications” (Bioorg Med Chem Lett, 1993).
# pIC50: −log10 of the molar value.
# Columns and labels:
# [1] = tested on: Aspergillus niger; experiment: Tested for the whole cell antifungal activity against Aspergillus niger 48238 strain; format: functional
# [2] = target: T1, Squalene synthase (Rattus norvegicus, UniProt Q02769); experiment: Inhibition of rat liver squalene synthase(SQS)
# T1 sequence (Q02769 whole entry): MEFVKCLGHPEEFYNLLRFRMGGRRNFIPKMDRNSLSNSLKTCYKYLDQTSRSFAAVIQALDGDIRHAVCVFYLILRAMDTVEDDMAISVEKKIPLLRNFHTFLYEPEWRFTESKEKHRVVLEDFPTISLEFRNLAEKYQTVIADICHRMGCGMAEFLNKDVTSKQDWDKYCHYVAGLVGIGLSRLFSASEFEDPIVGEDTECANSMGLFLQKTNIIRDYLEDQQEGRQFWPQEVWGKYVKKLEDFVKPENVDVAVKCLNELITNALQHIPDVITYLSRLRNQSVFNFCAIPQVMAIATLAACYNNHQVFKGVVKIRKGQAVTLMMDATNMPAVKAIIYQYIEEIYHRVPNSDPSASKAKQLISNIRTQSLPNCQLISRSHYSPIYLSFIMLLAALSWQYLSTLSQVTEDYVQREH
# [3] = tested on: Candida albicans; experiment: Antifungal activity against Candida albicans C316 strain; format: functional
# [4] = tested on: Cryptococcus neoformans; experiment: Antifungal activity against Cryptococcus neoformans 2867E strain; format: functional
SMILES,MIC [1] [µg/mL],pIC50 [2],MIC [3] [µg/mL],MIC [4] [µg/mL]
C=C(CC[C@]12O[C@H](C(=O)O)[C@@](O)(C(=O)O)[C@](C(=O)O)(O1)[C@H](O)[C@H]2OC(=O)CCCCCCC)[C@@H](OC(C)=O)[C@H](C)Cc1ccccc1,> 125,< 6.30,> 125,> 125
C=C(CC[C@]12O[C@H](C(=O)O)[C@@](O)(C(=O)O)[C@](C(=O)O)(O1)[C@H](OC(=O)/C=C/c1ccccc1)[C@H]2O)[C@@H](OC(C)=O)[C@H](C)Cc1ccccc1,> 125,8.40,> 125,31
C=C(CC[C@]12O[C@H](C(=O)O)[C@@](O)(C(=O)O)[C@](C(=O)O)(O1)[C@H](OC(=O)OC)[C@H]2O)[C@@H](OC(C)=O)[C@H](C)Cc1ccccc1,> 125,8.52,> 125,> 125
C=C(CC[C@]12O[C@H](C(=O)O)[C@@](O)(C(=O)O)[C@](C(=O)O)(O1)[C@H](O)[C@H]2OC(=O)OC)[C@@H](OC(C)=O)[C@H](C)Cc1ccccc1,> 125,6.42,> 125,> 125
C=C(CC[C@]12O[C@H](C(=O)O)[C@@](O)(C(=O)O)[C@](C(=O)O)(O1)[C@H](OC(=O)CCCCCCC)[C@H]2O)[C@@H](OC(C)=O)[C@H](C)Cc1ccccc1,8,8.52,31,1
C=C(CC[C@]12O[C@H](C(=O)O)[C@@](O)(C(=O)O)[C@](C(=O)O)(O1)[C@H](OC(=O)CCC)[C@H]2OC(=O)CCC)[C@@H](OC(C)=O)[C@H](C)Cc1ccccc1,> 125,,> 125,> 125
C=C(CC[C@]12O[C@H](C(=O)O)[C@@](O)(C(=O)O)[C@](C(=O)O)(O1)[C@H](OC(=O)CCCCCCC)[C@H]2OC(=O)CCCCCCC)[C@@H](OC(C)=O)[C@H](C)Cc1ccccc1,> 125,6.55,> 125,> 125
C=C(CC[C@]12O[C@H](C(=O)O)[C@@](O)(C(=O)O)[C@](C(=O)O)(O1)[C@H](OC(=O)/C=C/[C@@H](C)C[C@@H](C)CC)[C@H]2OC(=O)CCCCCCC)[C@@H](OC(C)=O)[C@H](C)Cc1ccccc1,> 32,,> 32,> 32
C=C(CC[C@]12O[C@H](C(=O)O)[C@@](O)(C(=O)O)[C@](C(=O)O)(O1)[C@H](O)[C@H]2O)[C@@H](OC(C)=O)[C@H](C)Cc1ccccc1,> 125,,> 125,> 125
C=C(CC[C@]12O[C@H](C(=O)O)[C@@](O)(C(=O)O)[C@](C(=O)O)(O1)[C@H](OC(=O)CCCCCCc1ccccc1)[C@H]2O)[C@@H](OC(C)=O)[C@H](C)Cc1ccccc1,62,8.05,125,2
C=C(CC[C@]12O[C@H](C(=O)O)[C@@](O)(C(=O)O)[C@](C(=O)O)(O1)[C@H](OC(=O)CCCC)[C@H]2O)[C@@H](OC(C)=O)[C@H](C)Cc1ccccc1,> 125,,> 125,> 125
C=C(CC[C@]12O[C@H](C(=O)O)[C@@](O)(C(=O)O)[C@](C(=O)O)(O1)[C@H](OC(=O)C1CCCCC1)[C@H]2O)[C@@H](OC(C)=O)[C@H](C)Cc1ccccc1,> 62,7.77,> 62,31
C=C(CC[C@]12O[C@H](C(=O)O)[C@@](O)(C(=O)O)[C@](C(=O)O)(O1)[C@H](OC(=O)c1ccccc1)[C@H]2O)[C@@H](OC(C)=O)[C@H](C)Cc1ccccc1,> 125,8.10,> 125,> 125
C=C(CC[C@]12O[C@H](C(=O)O)[C@@](O)(C(=O)O)[C@](C(=O)O)(O1)[C@H](OC(C)=O)[C@H]2O)[C@@H](OC(C)=O)[C@H](C)Cc1ccccc1,> 125,8.70,> 125,> 125
C=C(CC[C@]12O[C@H](C(=O)O)[C@@](O)(C(=O)O)[C@](C(=O)O)(O1)[C@H](OC(=O)OCCCC)[C@H]2O)[C@@H](OC(C)=O)[C@H](C)Cc1ccccc1,> 125,8.40,> 125,> 125
C=C(CC[C@]12O[C@H](C(=O)O)[C@@](O)(C(=O)O)[C@](C(=O)O)(O1)[C@H](OC(=O)OCCCCCCCCC)[C@H]2O)[C@@H](OC(C)=O)[C@H](C)Cc1ccccc1,0.25,8.15,1,0.06
C=C(CC[C@]12O[C@H](C(=O)O)[C@@](O)(C(=O)O)[C@](C(=O)O)(O1)[C@H](O)[C@H]2OC(C)=O)[C@@H](OC(C)=O)[C@H](C)Cc1ccccc1,> 125,,> 125,
C=C(CC[C@]12O[C@H](C(=O)O)[C@@](O)(C(=O)O)[C@](C(=O)O)(O1)[C@H](OC(=O)/C=C/[C@@H](C)C[C@@H](C)CC)[C@H]2O)[C@@H](OC(C)=O)[C@H](C)Cc1ccccc1 [ZARAGOZIC ACIDS A],16,,8,0.5
C=C(CC[C@]12O[C@H](C(=O)O)[C@@](O)(C(=O)O)[C@](C(=O)O)(O1)[C@H](OC(C)=O)[C@H]2OC(C)=O)[C@@H](OC(C)=O)[C@H](C)Cc1ccccc1,> 125,,> 125,
C=C(CC[C@]12O[C@H](C(=O)O)[C@@](O)(C(=O)O)[C@](C(=O)O)(O1)[C@H](OC(=O)CC1CCCCC1)[C@H]2O)[C@@H](OC(C)=O)[C@H](C)Cc1ccccc1,62,,62,2
C=C(CC[C@]12O[C@H](C(=O)O)[C@@](O)(C(=O)O)[C@](C(=O)O)(O1)[C@H](OC(=O)CCCCCCCCC)[C@H]2O)[C@@H](OC(C)=O)[C@H](C)Cc1ccccc1,2,8.10,16,2
C=C(CC[C@]12O[C@H](C(=O)O)[C@@](O)(C(=O)O)[C@](C(=O)O)(O1)[C@H](OC(=O)/C=C/[C@@H](C)C[C@@H](C)CC)[C@H]2OC(=O)OC)[C@@H](OC(C)=O)[C@H](C)Cc1ccccc1,> 125,7.82,125,> 125
C=C(CC[C@]12O[C@H](C(=O)O)[C@@](O)(C(=O)O)[C@](C(=O)O)(O1)[C@H](O)[C@H]2OC(=O)CCCCCCCCC)[C@@H](OC(C)=O)[C@H](C)Cc1ccccc1,> 125,6.52,> 125,> 125
C=C(CC[C@]12O[C@H](C(=O)O)[C@@](O)(C(=O)O)[C@](C(=O)O)(O1)[C@H](OC(=O)/C=C/[C@@H](C)C[C@@H](C)CC)[C@H]2OC(C)=O)[C@@H](OC(C)=O)[C@H](C)Cc1ccccc1,8,8.00,> 125,1
